Measurements as given in US20260306640A1, “TECHNOLOGIES TARGETING CELL STATES” (Auron Therapeutics, Inc., priority 2023, published 2026).
Like-named read-outs stand apart in the source and are kept apart here.

How the values were obtained:
NCI-H1048 cells = experiment: Cell growth inhibition, SCLC cell line NCI-H1048 (cell count, day 11); type: cell-based, human; conditions: Homo sapiens
Text: (§1) Among other things, provided technologies are useful for treating various diseases, disorders, or conditions. For example, in some embodiments, provided technologies are useful for treating cancer as confirmed in the present Example. […] In some embodiments, provided technologies can inhibit cell proliferation. In some embodiments, the present disclosure provides technologies for assessing various technologies, e.g., compounds, compositions, or methods. Among other things, the present Example provides technologies, e.g., cell growth inhibition assay, for assessing various technologies. […] In some embodiments, the following cell growth inhibition methods are utilized to assess provided technologies.
SCLC: SCLC cell lines NCI-H1048 and NCI-H1876 were cultured in DMEM F12 media with 5% FBS, 1% Penicillin/Streptomycin and HITES supplement (Hydrocortisone, Insulin, Transferrin, Estradiol and Sodium Selenite). NCI-H1048 cells were plated at 10,000 cells/well of a 24-well plate and NCI-H1876 cells were plated at 20,000 cells/well of a 96-well plate. Compound and media were replenished every two days out to day 11 and 10 respectively. Cells were then trypsinized and counted using either hemocytometer or an automated Countess cell counter.
(§2) In some assessments, for cell growth inhibition, cells, e.g., MOLM13, NCI-H1048, and LASCPC-01 cells, were counted using a hemocytometer or automated cell counting in triplicates. In some assessments, proliferation in NEPC organoids as measured with Cell Titer Glo reagent (Promega). Growth inhibition was determined relative to vehicle control.

MOLM-13 cells = experiment: Cell growth inhibition, AML cell line MOLM-13 (CyQuant, day 7); type: cell-based; conditions: Homo sapiens
Text: as §1
AML: AML cell line MOLM-13 cells were cultured in RPMI+15% FBS and were plated at 500 cells/well in 100 uL media in a U-bottom 96-well plate. Compounds were dilute to 3×final in full media and 50 uL were added to corresponding wells. Compound and media were replenished on days 2 and 5. On day 7, cells were transferred to a 96-well black bottom plate and CyQuant was performed per manufacturer's instructions.
as §2

KAT2B [1] = molecular target: T1, KAT2B (Homo sapiens, UniProt Q92831); experiment: KAT2B degradation, Western Blot (Jess), NCI-H1048 cells; type: cell-based; design: degrader, Western blot (Jess)
How it was run: (§3)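 NCI-H1048 cells grown in HITES medium with 5% FBS were treated with compounds for 24 h at 37° C. Lysates were run by capillary Western (Jess) with KAT2A or KAT2B antibodies and chemiluminescent detection. DC50 derived from percent protein reduction versus DMSO control.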

KAT2A [2] = molecular target: T2, KAT2A (Homo sapiens, UniProt Q92830); experiment: KAT2A degradation, Western Blot (Jess), MOLM-13 cells; type: cell-based; design: degrader, Western blot
How it was run: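 MOLM-13 cells in RPMI 1640/20% FBS were treated with compound for 24 h at 37 °C. RIPA lysates (4 μg) were run on a capillary Western (Jess) with anti-KAT2A antibody and chemiluminescent detection. DC50 comes from percent protein reduction versus DMSO control.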

KAT2A [3] = molecular target: T2, KAT2A; experiment: KAT2A degradation, Western Blot (Jess), NCI-H1048 cells; type: cell-based; design: degrader, Western blot (Jess)
How it was run: as §3

KAT2B [4] = molecular target: T1, KAT2B; experiment: KAT2B degradation, Western Blot, MOLM-13 cells; type: cell-based; design: degrader, Western blot; conditions: MOLM-13, KAT2B
Method: MOLM-13 cells were maintained at 37° C. in 5% CO2 and 90% humidity in RPMI 1640 supplemented with 20% fetal bovine serum (FBS) and 1× penicillin/streptomycin. Cells were plated in full media at 1-2 million cells/2 mL in a 6-well tissue culture treated plate with or without compounds for 24 h at 37° C. in 5% CO2.
MOLM-13 cells or NCI-H1048 cells were washed with PBS, then lysed with RIPA buffer containing 1×protease and phosphatase inhibitors (SantaCruz Biotechnologies Cat #sc-24948A). Protein was isolated by centrifugation at 12,000×g for 10 minutes at 4° C. and supernatant was collected. Protein was quantified via Bradford assay. Samples were diluted to 4 μg lysate in 16 μL RIPA buffer and then 4 μL of Jess Sample Buffer. Samples were heated at 95° C. for 5 minutes. Samples were loaded onto 12-230 kDa Jess™ Separation Module, 8×25 capillary cartridges (SM-W004, Biotechne). Antibodies loaded were: Primary antibody for KAT2A (GCN5L2 (C26A10) Rabbit mAb (3305, CST)) and for KAT2B (PCAF (C14G9)) Rabbit mAb (3378, CST) at 1:1000 and Anti-Rabbit Detection Module for Jess™ (Cat No #DM-001, Biotechne). Signal was detected by chemiluminescence.
DC50 values were determined from percent reduction of protein as compared to the DMSO control.

[5] = 264 h, NCI-H1048, day 11, cell count, read-out: H1048 GI50
[6] = 168 h, MOLM-13, day 7, CyQuant, read-out: MOLM13 GI50
[7] = NCI-H1048 cells, KAT2B, 24 h, Western Blot, vs DMSO, read-out: KAT2B NCI-H1048 DC50
[8] = MOLM-13 cells, KAT2A, 24 h, Western Blot, vs DMSO, read-out: KAT2A MOLM-13 DC50
[9] = NCI-H1048 cells, KAT2A, 24 h, Western Blot, vs DMSO, read-out: KAT2A NCI-H1048 DC50

T2 sequence (Q92830 whole entry): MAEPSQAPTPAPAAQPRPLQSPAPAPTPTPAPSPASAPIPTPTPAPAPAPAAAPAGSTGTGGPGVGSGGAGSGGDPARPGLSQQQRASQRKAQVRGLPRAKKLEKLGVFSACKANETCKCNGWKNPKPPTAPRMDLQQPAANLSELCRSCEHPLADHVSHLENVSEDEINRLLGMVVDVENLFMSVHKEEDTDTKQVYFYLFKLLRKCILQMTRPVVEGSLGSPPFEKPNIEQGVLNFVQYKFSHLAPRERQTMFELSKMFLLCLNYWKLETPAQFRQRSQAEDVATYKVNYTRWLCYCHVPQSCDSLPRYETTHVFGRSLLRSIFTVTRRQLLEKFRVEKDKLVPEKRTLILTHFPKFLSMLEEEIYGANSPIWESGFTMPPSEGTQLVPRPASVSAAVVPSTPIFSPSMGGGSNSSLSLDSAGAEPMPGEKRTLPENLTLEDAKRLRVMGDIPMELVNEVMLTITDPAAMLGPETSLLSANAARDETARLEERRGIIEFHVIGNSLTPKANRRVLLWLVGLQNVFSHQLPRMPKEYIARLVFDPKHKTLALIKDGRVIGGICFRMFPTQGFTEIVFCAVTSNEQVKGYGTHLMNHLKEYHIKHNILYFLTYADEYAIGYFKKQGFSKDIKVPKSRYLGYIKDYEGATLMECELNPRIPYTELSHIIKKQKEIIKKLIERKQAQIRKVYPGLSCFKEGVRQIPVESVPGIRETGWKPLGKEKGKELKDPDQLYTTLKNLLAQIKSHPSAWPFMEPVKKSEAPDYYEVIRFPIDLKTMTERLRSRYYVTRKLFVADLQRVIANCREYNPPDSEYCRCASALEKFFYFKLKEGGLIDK
T1 sequence (Q92831 whole entry): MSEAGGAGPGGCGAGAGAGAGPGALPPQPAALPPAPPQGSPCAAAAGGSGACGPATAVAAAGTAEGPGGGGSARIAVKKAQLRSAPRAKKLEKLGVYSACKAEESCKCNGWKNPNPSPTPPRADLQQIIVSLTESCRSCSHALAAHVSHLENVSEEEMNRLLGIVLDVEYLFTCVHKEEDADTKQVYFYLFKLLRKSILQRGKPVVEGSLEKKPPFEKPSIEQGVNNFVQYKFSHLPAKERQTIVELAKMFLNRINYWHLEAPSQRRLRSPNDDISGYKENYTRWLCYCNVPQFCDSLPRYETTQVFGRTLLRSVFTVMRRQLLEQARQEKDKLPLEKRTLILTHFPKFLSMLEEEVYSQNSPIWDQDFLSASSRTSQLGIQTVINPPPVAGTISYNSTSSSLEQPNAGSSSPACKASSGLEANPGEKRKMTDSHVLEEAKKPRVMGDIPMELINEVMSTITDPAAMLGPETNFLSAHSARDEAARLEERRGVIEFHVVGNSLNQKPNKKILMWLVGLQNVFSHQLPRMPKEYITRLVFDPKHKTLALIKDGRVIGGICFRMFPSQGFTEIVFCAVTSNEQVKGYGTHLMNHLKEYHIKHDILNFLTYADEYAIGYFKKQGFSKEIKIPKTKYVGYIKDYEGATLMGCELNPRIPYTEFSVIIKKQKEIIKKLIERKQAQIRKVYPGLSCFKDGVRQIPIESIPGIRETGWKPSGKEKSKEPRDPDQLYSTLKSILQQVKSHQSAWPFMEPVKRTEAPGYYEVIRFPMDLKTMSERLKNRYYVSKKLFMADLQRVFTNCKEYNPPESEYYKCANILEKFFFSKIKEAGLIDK

Structure (SMILES) | GI50 (MOLM-13 cells; [6]) | DC50 (KAT2B [1]; [7]) | DC50 (KAT2A [2]; [8]) | DC50 (KAT2A [3]; [9]) | also measured
CN1C[C@H](Nc2cnn(C)c(=O)c2Br)C[C@H](c2ccc(C(=O)N3CCN(Cc4ccc(C(=O)Nc5ccc6c(c5)CN(C5CCC(=O)NC5=O)C6=O)cc4)CC3)cc2)C1 (stereo partly shown) [Compound 2-15] | 5.2 nM |  |  |  | GI50 (NCI-H1048 cells; [5]): 2 nM
CN1C[C@H](Nc2cnn(C)c(=O)c2Br)C[C@H](c2ccc(COc3ccc4c(c3)C(=O)N(C3CCC(=O)NC3=O)C4=O)cc2)C1 (stereo partly shown) [Compound 39] | 5.6 nM | 1 to 30 nM | < 1 nM | < 1 nM | 
CN1C[C@H](Nc2cnn(C)c(=O)c2Br)C[C@H](c2ccc(C(=O)N3CCC(CN4CCN(c5ccc6c(c5)C(=O)N(C5CCC(=O)NC5=O)C6=O)CC4)CC3)cc2)C1 (stereo partly shown) [Compound 40] | 7.8 nM |  | < 1 nM |  | 
CN1C[C@H](Nc2cnn(C)c(=O)c2Br)C[C@H](c2ccc(C(=O)N3CCC4(CC3)CCN(c3ccc(C5CCC(=O)NC5=O)cc3F)CC4)cc2)C1 (stereo partly shown) [Compound 146] | 5.9 nM | < 1 nM | < 1 nM | < 1 nM | 
Cc1cc(N2CCC3(CCN(C(=O)c4ccc([C@H]5C[C@@H](Nc6cnn(C)c(=O)c6Br)CN(C)C5)cc4)CC3)CC2)ccc1C1CCC(=O)NC1=O (stereo partly shown) [Compound 167] | 4.8 nM | < 1 nM | < 1 nM | < 1 nM | 
COc1cc(N2CCC3(CCN(C(=O)c4ccc([C@H]5C[C@@H](Nc6cnn(C)c(=O)c6Cl)CN(C)C5)cc4)CC3)CC2)ccc1C1CCC(=O)NC1=O (stereo partly shown) [Compound 232] | 5.2 nM | 1 to 30 nM |  | < 1 nM | 
CN1C[C@H](Nc2cnn(C)c(=O)c2Cl)C[C@H](c2ccc(C(=O)N3CCC4(CC3)CCN(c3ccc(C5CCC(=O)NC5=O)nc3)CC4)cc2)C1 (stereo partly shown) [Compound 233] | 5.5 nM | 1 to 30 nM |  | < 1 nM | 
COc1cc(C2CCC(=O)NC2=O)ccc1N1CCC2(CCN(C(=O)c3ccc([C@H]4C[C@@H](Nc5cnn(C)c(=O)c5Br)CN(C)C4)cc3)CC2)CC1 (stereo partly shown) [Compound 238] | 20 nM | 1 to 30 nM |  | < 1 nM | GI50 (NCI-H1048 cells; [5]): 60 nM
Cc1cc(N2CCC3(CCN(C(=O)c4ccc([C@H]5C[C@@H](Nc6cnn(C)c(=O)c6Cl)CN(C)C5)cc4)CC3)CC2)c(F)cc1C1CCC(=O)NC1=O (stereo partly shown) [Compound 242] | > 100 nM | > 30 nM |  | 1 to 30 nM | 
Cc1cc(N2CCC3(CCN(C(=O)c4ccc([C@H]5C[C@@H](Nc6cnn(C)c(=O)c6Br)CN(C)C5)cc4)CC3)CC2)c(F)cc1C1CCC(=O)NC1=O (stereo partly shown) [Compound 243] | > 100 nM | > 30 nM |  | 1 to 30 nM | 
CN1C[C@H](Nc2cnn(C)c(=O)c2Cl)C[C@H](c2ccc(C(=O)N3CCC4(CC3)CCN(c3ccc(OC5CCC(=O)NC5=O)cc3)CC4)cc2)C1 (stereo partly shown) [Compound 362] | 33.3 nM | 1 to 30 nM |  | < 1 nM | 
CN1C[C@H](Nc2cnn(C)c(=O)c2Br)C[C@H](c2ccc(C(=O)N3CCC4(CC3)CCN(c3ccc(OC5CCC(=O)NC5=O)cc3)CC4)cc2)C1 (stereo partly shown) [Compound 363] | 5.7 nM | 1 to 30 nM |  | < 1 nM | 
CN1C[C@H](Nc2cnn(C)c(=O)c2Br)C[C@H](c2ccc(C(=O)N(C)CCCN(C)c3ccc(CCCOc4cccc5c4C(=O)N(C4CCC(=O)NC4=O)C5=O)cc3)cc2)C1 (stereo partly shown) [Compound Ref-1, reference compound] |  |  |  |  | EC90 (KAT2B [4]; 24 h, read-out: DC90 (the source's name)): 1.8 nM; DC50 (KAT2B [4]): 0.075 nM; GI50 (NCI-H1048 cells; NCI-H1048, comparison table with Ref-1, read-out: Growth GI50): 32 nM; EC90 (KAT2B [1]; 24 h, NCI-H1048, KAT2B, read-out: DC90 (the source's name)): 1 nM; DC50 (KAT2B [1]; NCI-H1048, KAT2B, read-out: DC50): 0.1 nM; EC90 (KAT2A [2]; 24 h, MOLM-13, KAT2A, read-out: DC90 (the source's name)): 51 nM; DC50 (KAT2A [2]; MOLM-13, KAT2A, read-out: DC50): 2.2 nM; EC90 (KAT2A [3]; 24 h, NCI-H1048, KAT2A, read-out: DC90 (the source's name)): 16 nM; DC50 (KAT2A [3]; NCI-H1048, KAT2A, read-out: DC50): 1.5 nM; GI50 (MOLM-13 cells; MOLM-13, comparison table with Ref-1, read-out: Growth GI50): 60 nM

The remaining molecules from weak to strong by GI50 (MOLM-13 cells; [6]), led by results:

GI50 (MOLM-13 cells; [6]) | DC50 (KAT2B [1]; [7]) | DC50 (KAT2A [2]; [8]) | DC50 (KAT2A [3]; [9]) | Structure (SMILES) | also measured
3.7 nM | < 1 nM |  | < 1 nM | Cc1cc(C2CCC(=O)NC2=O)ccc1N1CCC2(CCN(C(=O)c3ccc([C@H]4C[C@@H](Nc5cnn(C)c(=O)c5Cl)CN(C)C4)cc3)CC2)CC1 (stereo partly shown) [Compound 250] | 
1.7 nM | 1 to 30 nM | < 1 nM | < 1 nM | CN1C[C@H](Nc2cnn(C)c(=O)c2Br)C[C@H](c2ccc(CN3CCC(Oc4ccc(C5CCC(=O)NC5=O)cc4)CC3)cc2)C1 (stereo partly shown) [Compound 86] | GI50 (NCI-H1048 cells; [5]): 11 nM
1.1 nM | 1 to 30 nM | < 1 nM | < 1 nM | CN1C[C@H](Nc2cnn(C)c(=O)c2Br)C[C@H](c2ccc(CN3CCN(c4cccc([C@H]5CCC(=O)NC5=O)c4)CC3)cc2)C1 [Compound 84, 3-[3-[4-[[4-[(3R,5R)-5-[(5-bromo-1-methyl-6-oxo-pyridazin-4-yl)amino]-1-methyl-3-piperidyl]phenyl]methyl]piperazin-1-yl]phenyl]piperidine-2,6-dione] | 
1 nM | < 1 nM | < 1 nM | < 1 nM | CN1C[C@H](Nc2cnn(C)c(=O)c2Cl)C[C@H](c2ccc(C(=O)N3CCC4(CC3)CCN(c3ccc(C5CCC(=O)NC5=O)cc3)CC4)cc2)C1 (stereo partly drawn) [Compound 145, 3-[4-[3-[4-[(3R,5R)-5-[(5-chloro-1-methyl-6-oxo-pyridazin-4-yl)amino]-1-methyl-3-piperidyl]benzoyl]-3,9-diazaspiro[5.5]undecan-9-yl]phenyl]piperidine-2,6-dione] | 
0.9 nM | < 1 nM | < 1 nM | < 1 nM | CN1C[C@H](Nc2cnn(C)c(=O)c2Br)C[C@H](c2ccc(C(=O)N3CCC4(CC3)CCN(c3ccc(C5CCC(=O)NC5=O)cc3)CC4)cc2)C1 (stereo partly drawn) [Compound 90, 3-[4-[3-[4-[(3R,5R)-5-[(5-bromo-1-methyl-6-oxo-pyridazin-4-yl)amino]-1-methyl-3-piperidyl]benzoyl]-3,9-diazaspiro[5.5]undecan-9-yl]phenyl]piperidine-2,6-dione] | GI50 (NCI-H1048 cells; [5]): 1.5 nM
0.9 nM | < 1 nM | < 1 nM | < 1 nM | CN1C[C@H](Nc2cnn(C)c(=O)c2Br)C[C@H](c2ccc(C(=O)N3CCC4(CC3)CCN(c3ccc(C5CCC(=O)NC5=O)c(F)c3)CC4)cc2)C1 (stereo partly drawn) [Compound 157, 3-[4-[3-[4-[(3R,5R)-5-[(5-bromo-1-methyl-6-oxo-pyridazin-4-yl)amino]-1-methyl-3-piperidyl]benzoyl]-3,9-diazaspiro[5.5]undecan-9-yl]-2-fluoro-phenyl]piperidine-2,6-dione] | 
